# Test results published in EP2682005A1, “A dietary supplement composition” (Symrise AG, priority 2012, dated 2014).
# How the values were obtained:
# Type in all cases: biochemical
# [1] = Activity against free radicals, Method A (DPPH radical, optical density at 513 nm)
# Method: (§1) The effectiveness of the test substances against free radicals was tested by various chemical and biochemical methods: Method A A first test was carried out using diphenylpicrylhydrazyl (DPPH°) which is a relatively stable radical that forms a purple-coloured solution. The optical density (DO) at 513 nm was determined. Method B Hydroxyl radicals were released from hydrogen peroxide in the presence of iron (II) ions and EDTA and were used to oxidize desoxyribose. The oxidation product forms a pink-coloured compound with thiobarbituric acid. Its concentration corresponds to the optical density at 532 nm. A test was conducted to determine whether less desoxyribose is oxidized, i.e. whether fewer free radicals are released, in the presence of the test products. […] Method D Xanthine oxidase is an enzyme which is released through oxidative stress and catabolizes the decomposition of the purine bases adenine and guanine into uronic acid and superoxide anions. The superoxide anions dismute into hydrogen peroxide and oxygen either spontaneously or in the presence of Superoxid Dismutase. The quantity of superoxide anion can be determined by NBT reduction via the optical density at 490 nm. A test was conducted to determine whether fewer superoxide anions are generated or more anions are destroyed in the presence of the test substances. The results are set out in Table 1 and represent the EC50 values in % (w/v).
# Xanthine oxidase = Xanthine oxidase (Homo sapiens, UniProt P47989); assay: Activity against free radicals, Method D (xanthine oxidase, superoxide anion by NBT reduction); conditions: optical density at 490 nm
# Chain of Xanthine oxidase (P47989 whole entry, species assumed): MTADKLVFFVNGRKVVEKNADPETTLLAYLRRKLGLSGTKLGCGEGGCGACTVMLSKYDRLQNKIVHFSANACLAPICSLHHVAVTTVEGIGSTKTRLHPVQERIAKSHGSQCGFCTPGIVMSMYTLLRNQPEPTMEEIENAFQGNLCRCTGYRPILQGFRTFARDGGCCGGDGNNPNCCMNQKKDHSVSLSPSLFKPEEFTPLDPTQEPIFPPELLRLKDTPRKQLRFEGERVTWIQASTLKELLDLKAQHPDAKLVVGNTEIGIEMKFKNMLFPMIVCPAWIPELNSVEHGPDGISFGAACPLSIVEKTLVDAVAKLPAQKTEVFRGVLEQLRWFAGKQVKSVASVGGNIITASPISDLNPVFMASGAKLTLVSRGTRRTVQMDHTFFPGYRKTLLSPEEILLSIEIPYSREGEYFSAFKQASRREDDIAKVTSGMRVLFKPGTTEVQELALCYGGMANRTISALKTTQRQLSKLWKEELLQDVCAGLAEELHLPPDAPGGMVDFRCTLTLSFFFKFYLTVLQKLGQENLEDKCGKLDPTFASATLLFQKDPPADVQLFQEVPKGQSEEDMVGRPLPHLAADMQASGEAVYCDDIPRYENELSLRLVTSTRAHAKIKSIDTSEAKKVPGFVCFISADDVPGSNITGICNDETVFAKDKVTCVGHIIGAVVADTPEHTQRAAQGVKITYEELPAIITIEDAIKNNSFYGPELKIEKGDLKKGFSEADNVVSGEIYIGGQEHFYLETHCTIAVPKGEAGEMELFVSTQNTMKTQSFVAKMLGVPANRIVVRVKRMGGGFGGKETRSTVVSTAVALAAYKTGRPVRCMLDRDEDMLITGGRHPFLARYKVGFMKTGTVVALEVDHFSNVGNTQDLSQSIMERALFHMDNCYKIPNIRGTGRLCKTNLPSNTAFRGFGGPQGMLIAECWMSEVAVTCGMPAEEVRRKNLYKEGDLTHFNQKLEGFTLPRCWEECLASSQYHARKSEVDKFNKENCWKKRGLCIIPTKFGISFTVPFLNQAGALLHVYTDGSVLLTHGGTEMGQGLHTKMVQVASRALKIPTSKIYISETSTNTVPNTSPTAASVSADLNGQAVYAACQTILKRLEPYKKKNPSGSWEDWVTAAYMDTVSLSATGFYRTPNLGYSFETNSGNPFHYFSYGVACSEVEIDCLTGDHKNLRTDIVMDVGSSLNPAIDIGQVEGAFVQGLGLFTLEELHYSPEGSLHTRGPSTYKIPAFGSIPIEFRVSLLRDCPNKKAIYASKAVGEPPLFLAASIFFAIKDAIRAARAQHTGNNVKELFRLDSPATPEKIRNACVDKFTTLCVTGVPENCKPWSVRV
# Method: as §1, with “substances.” for “substances. The results are set out in Table 1 and represent the EC50 values in % (w/v).”
# The results are set out in Table 1 and represent the EC50 values in % (w/v).
# [2] = Activity against free radicals, Method B (hydroxyl radicals from hydrogen peroxide with iron (II) ions and EDTA, desoxyribose oxidation); conditions: optical density at 532 nm
# Method: as §1, with “The results are set out in Table 1 and represent the EC50 values in % (w/v).” left out
# [3] = Activity against free radicals, Method C (desoxyribose oxidation in the absence of EDTA, forming inactive iron complexes); conditions: as Method B in the absence of EDTA
# Method: as §1, with “The results are set out in Table 1 and represent the EC50 values in % (w/v).” left out
Compound,"EC50, Method A [1]","EC50, Method D (Xanthine oxidase)","EC50, Method B [2]","EC50, Method C [3]"
Butylhydroxytoluol,0.0500 % (w/v),No effect,–,–
Tocopherol,0.0067 % (w/v),No effect,–,–
O=C1O[C@H]([C@@H](O)CO)C(O)=C1O [Ascorbic acid],0.0013 % (w/v),0.59 % (w/v),0.26 % (w/v),0.9 % (w/v)
